Patent US20140037630A1, “METHODS FOR TREATING MICA-RELATED DISORDERS” (DANA-FARBER CANCER INSTITUTE, INC., priority 2006, published 2014)

Columns and labels:
U226 MM cells [1] = assay: Immunoblotting for DNA damage response (phospho-ATM, phospho-chk-2) in U226 MM cells; assay type: cell-based
Method: (§1) Antibodies used for immunoblotting were: anti-phospho-ATM (ser 1981), anti-ATM, anti-phospho-ATR (ser 428), anti-ATR, anti-phospho-chk-1 (ser 280) and anti-phospho-chk-2 (thr 68) (Cell Signaling, Beverly, Mass.). Immunoblotting was performed according to standard methods. In some experiments, U226 cells were transiently transfected with expression plasmids encoding human chk-1 shRNA (5′-[…]-3′) (SEQ ID NO: 1), chk-2 shRNA, or ATM shRNA (Upstate cell signaling, Lake Placid, N.Y.) according to the manufacturer's instructions. The efficiency of gene knockdown was 50%-90% as assessed by immunoblotting.
(§2) U226, RPMI, and MM-1R cells were obtained from the American Type Culture Collection (Manassas, Va.), and MM-1S cells were a gift of Dr. Steven Rosen (Northwestern University). […] U226-MICA cells were generated with retroviral mediated gene transfer according to standard methods.
(§3) The effect of the proteasome inhibitor Bortezomib, a MM therapeutic, on MICA expression and the DNA damage response pathway was analyzed. U226 and RPMI-8226 MM cells were treated with 20 μM Bortezomib, 250 μg/ml dexamethasone or 10 μg/ml aphidicolin (a DNA polymerase inhibitor that served as a control for inducing DNA damage) for the indicated times. Cell lysates were prepared and evaluated for phospho-ATM (ser 1981), ATM, phospho-chk-2 (thr 68) or chk-2 by immunoblotting. […]

RPMI-8226 MM cells = assay: Immunoblotting for DNA damage response (phospho-ATM, phospho-chk-2) in RPMI-8226 MM cells; assay type: cell-based; settings: 20 μM Bortezomib or 250 μg/ml dexamethasone
Method: as §1, §2, §3

MM-1S cells = assay: Immunoblotting for phospho-ATM and total ATM in MM-1S cells; assay type: cell-based; settings: 10 μM Bortezomib
Method: as §1, §2, §3

U226 MM cells [2] = assay: Surface MICA expression by flow cytometry in U226 MM cells; assay type: cell-based; settings: 20 μM Bortezomib overnight
Method: (§4) PBMCs and bone marrow aspirates were processed by Ficoll-Hypaque (Pharmacia) density-gradient centrifugation. PBMCs from healthy donors or patients were incubated for 48 hours in patient or control sera (10%) in complete media and stained with PE-conjugated anti-NKG2D mAb (Pharmingen), FITC-conjugated anti-CD3 mAb (BD-Biosciences Pharmingen), and either PC5-conjugated anti-CD8 mAb or PC5-conjugated anti-CD56 mAb (Beckman-Coulter). In Examples 9-11, antibodies used, in addition to the above, were: FITC-conjugated anti-CD138, PE-conjugated anti-MICA mAb (R&D Systems), and anti-ERp5 (Axxora Platform) followed by FITC-conjugated anti-rabbit (Southern Biotech). Cells were analyzed with a FW501 flow cytometer (Beckman-Coulter) and FlowJo software (Tree Star). Cells were gated for CD3^+CD8^+ T cells and CD3^−CD56^+ NK cells. […] Cells were analyzed with a FACScan cytometer (Becton Dickinson). […]
(§5) For the experiment shown in FIG. 16B, the indicated MM cells were treated with 20 μM Bortezomib overnight and surface MICA expression was determined with flow cytometry. […] IFN-γ production was measured by ELISPOT against dendritic cells loaded with U226 MM cells. […]

MM-1R MM cells = assay: Surface MICA expression by flow cytometry in MM-1R MM cells; assay type: cell-based; settings: 20 μM Bortezomib overnight
Method: as §4, §5

U226 MM cells [3] = assay: Dendritic cell cross-presentation of MGUS sera-coated treated U226 MM cells, IFN-γ ELISPOT of CD8+ T cells; assay type: cell-based; settings: drug treated U226 MM cells coated with MGUS sera; CD8+ T cells stimulated seven days
Method: Donor peripheral blood mononuclear cells (PBMCs) were incubated in 10% patient sera as described above, and NK cells, isolated by magnetic cell sorting (Miltenyl Biotech), were tested in four-hour lysis assays against ^51Cr-labeled K562 target cells. The spontaneous release in all assays was less than 20% of the maximum. Dendritic cells (generated from adherent PBMCs with GM-CSF and IL-4) were co-cultured with opsonized tumor cells (1:1 ratio) for 20 hours, matured with LPS (Sigma-Aldrich) for 24 hours, and then used to stimulate autologous CD8+ T cells, isolated by magnetic cell sorting, for seven days. Antigen specific IFN-γ production was then determined by ELISPOT. For enzyme-linked immunospot (ELISPOT) analysis, ImmunoSpotplates (Cellular Technology) were coated overnight at 37° C. with 10 μg/ml anti-IFN-γ mAb (Mabtech). […] Spots were developed by using BCIP/NBT as a color development substrate and counted with an ImmunoSpot microplate reader (Cellular Technology, Cleveland).
as §5

MICA = assay: Anti-MICA antibody ELISA with recombinant MICA protein on longitudinal patient sera; assay type: in vivo, human; settings: patient MEL15; sera diluted 1:500
Method: (§6) Anti-MICA antibodies and sMICA levels were measured with ELISAs using recombinant MICA protein (ProSpec-Tany TechnoGene Inc.) and anti-human MICA monoclonal antibodies (R&D Systems). The lower limits of the assay were 90 pg/ml. The Wilcoxon rank sum test with no adjustments for multiple comparisons was used to analyze the differences among the normal donors, MGUS, and MM patients. For complement assays, 293T and 293-T-MICA cells, generated by retroviral mediated gene transfer were incubated with patient sera and human complement (Sigma-Aldrich) and lysis quantified using MTT (Roche Diagnostic GmbH).
The humoral response to MICA was analyzed by an ELISA with recombinant MICA protein as described in Example 1. Longitudinal sera samples from MEL15 were diluted 1:500. Downward arrows denote tumor cell vaccinations and upward arrows depict infusions of MDX-010.
Patient M37 entered study with visceral melanoma metastases, which were completely resected for vaccine manufacture. […] Subsequent isolated recurrences were processed into additional vaccines, whereas the patient succumbed to progressive disease 4.5 years after study entry.

sMICA = sMICA ELISA on longitudinal MEL15 sera; assay type: in vivo, human; settings: patient MEL15 sera
Method: as §6
Soluble MICA (sMICA) levels were also analyzed. […] The reduction in sMICA was confirmed with immunoblotting analysis of MEL15 sera using an anti-MICA monoclonal antibody.

CC(C)C[C@H](NC(=O)[C@H](Cc1ccccc1)NC(=O)c1cnccn1)B(O)O [Bortezomib]
ATM phosphorylation (ser 1981) (U226 MM cells [1]; 10 μM Bortezomib): induced ATM phosphorylation
phosphorylation of ATM (ser 1981) and chk-2 (thr 68) (U226 MM cells [1]; 20 μM Bortezomib or 250 μg/ml dexamethasone): triggered the rapid phosphorylation
phosphorylation of ATM (ser 1981) and chk-2 (thr 68) (RPMI-8226 MM cells): but not RPMI MM cells
ATM (total ATM, immunoblot) (MM-1S cells): stimulated the degradation of ATM
surface expression of MICA (U226 MM cells [2]): increased the surface expression of MICA
surface expression of MICA (MM-1R MM cells): increased the surface expression of MICA
dendritic cell cross-presentation of treated U226 cells by MGUS sera (IFN-γ ELISPOT) (U226 MM cells [3]): as efficiently as U226-MICA cells

MDX-010: fully human anti-CTLA-4 blocking monoclonal antibody
anti-MICA antibody titers (MICA): elevated levels of anti-MICA antibodies
sMICA levels (sMICA): sharp decrease
